Experimental data from PubChem BioAssay AID588610 (The Scripps Research Institute Molecular Screening Center, 2011).

Biological target: Epidermal growth factor receptor (Homo sapiens) (UniProt P00533)
Test: altered EGFR protein amount in cells – DLD1 cells, chemiluminescent western blot, counter-screen for KLF5 inhibitor project, late-stage follow-up (AID 588610)
Settings: DLD-1 cells, 24 h, at 10 µM; for fold change: measured here: EGFR band fold change vs DMSO; for inhibition of EGFR protein level: stronger effect = higher value

SMILES | fold change | inhibition of EGFR protein level [%]
CN(C(=O)CNC(=O)/C=C/c1cccc(Cl)c1)C1CCS(=O)(=O)C1 (stereo not given) | 5.24 | –
CN(C(=O)COC(=O)/C=C/c1cccc([N+](=O)[O-])c1)C1CCS(=O)(=O)C1 (stereo not given) | 3.54 | -314
CN(C(=O)CNC(=O)/C=C/c1cccc(Cl)c1)C1CCS(=O)(=O)CC1 | 5.13 | -478
